Measurements as given in ChEMBL document CHEMBL4804281, “STK4 inhibitors for treatment of hematologic malignancies” (2020).
Activity calls are given as the source filed them. The rule behind the calls is not given here.

What was measured:
[1] = target: Dual specificity mitogen-activated protein kinase kinase 2 (Homo sapiens) (UniProt P36507); assay: Inhibition of MAP2K2 in human NCI-H929 cells at 10 uM by mass spectroscopic analysis relative to control; type: cell-based
[2] = target: Cyclin-dependent kinase 11B (Homo sapiens) (UniProt P21127); assay: Inhibition of PITSLRE in human NCI-H929 cells at 10 uM by mass spectroscopic analysis relative to control; type: cell-based
Sequence of Cyclin-dependent kinase 11B (Homo sapiens) (P21127 whole entry): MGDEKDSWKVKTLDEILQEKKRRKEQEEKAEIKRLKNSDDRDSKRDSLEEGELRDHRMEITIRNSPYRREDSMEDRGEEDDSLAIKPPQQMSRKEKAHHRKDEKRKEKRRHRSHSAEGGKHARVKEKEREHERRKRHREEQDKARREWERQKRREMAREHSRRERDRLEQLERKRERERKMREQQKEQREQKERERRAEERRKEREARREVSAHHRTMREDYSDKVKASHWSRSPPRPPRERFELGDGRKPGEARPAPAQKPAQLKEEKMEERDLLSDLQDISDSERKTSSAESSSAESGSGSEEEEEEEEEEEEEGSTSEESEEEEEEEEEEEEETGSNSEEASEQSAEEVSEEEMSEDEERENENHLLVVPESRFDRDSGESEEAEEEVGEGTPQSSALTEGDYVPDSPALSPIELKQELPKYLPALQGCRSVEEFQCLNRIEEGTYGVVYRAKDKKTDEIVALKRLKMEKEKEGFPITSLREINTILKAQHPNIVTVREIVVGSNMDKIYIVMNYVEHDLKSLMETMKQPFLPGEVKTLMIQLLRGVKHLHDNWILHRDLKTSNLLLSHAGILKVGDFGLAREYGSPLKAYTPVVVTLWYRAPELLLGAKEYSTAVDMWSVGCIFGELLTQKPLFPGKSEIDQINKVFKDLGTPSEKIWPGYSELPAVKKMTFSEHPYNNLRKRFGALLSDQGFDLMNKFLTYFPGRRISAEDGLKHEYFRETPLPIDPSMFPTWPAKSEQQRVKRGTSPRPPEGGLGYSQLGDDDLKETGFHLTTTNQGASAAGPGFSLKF

[3] = target: Cyclin-dependent kinase 18 (Homo sapiens) (UniProt Q07002); assay: Inhibition of PCTAIRE3 in human NCI-H929 cells at 10 uM by mass spectroscopic analysis relative to control; type: cell-based
Sequence of Cyclin-dependent kinase 18 (Homo sapiens) (Q07002 whole entry): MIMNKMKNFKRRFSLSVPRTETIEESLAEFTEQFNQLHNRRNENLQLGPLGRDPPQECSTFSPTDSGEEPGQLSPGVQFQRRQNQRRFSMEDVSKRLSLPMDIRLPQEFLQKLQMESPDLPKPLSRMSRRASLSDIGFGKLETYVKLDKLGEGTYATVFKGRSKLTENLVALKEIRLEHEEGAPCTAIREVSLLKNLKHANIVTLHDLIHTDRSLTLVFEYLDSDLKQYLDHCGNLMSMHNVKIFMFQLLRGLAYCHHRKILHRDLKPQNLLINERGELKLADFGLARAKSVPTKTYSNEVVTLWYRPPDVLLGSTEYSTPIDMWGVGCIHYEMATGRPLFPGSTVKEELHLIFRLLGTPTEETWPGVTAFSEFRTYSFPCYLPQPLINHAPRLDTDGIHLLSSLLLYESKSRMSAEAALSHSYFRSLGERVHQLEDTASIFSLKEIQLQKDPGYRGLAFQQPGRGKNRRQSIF

[4] = target: T1, Tyrosine-protein kinase receptor TYRO3 (Homo sapiens) (UniProt Q06418); assay: Inhibition of TYRO3 in human NCI-H929 cells at 10 uM by mass spectroscopic analysis relative to control; type: cell-based
T1 sequence (whole entry): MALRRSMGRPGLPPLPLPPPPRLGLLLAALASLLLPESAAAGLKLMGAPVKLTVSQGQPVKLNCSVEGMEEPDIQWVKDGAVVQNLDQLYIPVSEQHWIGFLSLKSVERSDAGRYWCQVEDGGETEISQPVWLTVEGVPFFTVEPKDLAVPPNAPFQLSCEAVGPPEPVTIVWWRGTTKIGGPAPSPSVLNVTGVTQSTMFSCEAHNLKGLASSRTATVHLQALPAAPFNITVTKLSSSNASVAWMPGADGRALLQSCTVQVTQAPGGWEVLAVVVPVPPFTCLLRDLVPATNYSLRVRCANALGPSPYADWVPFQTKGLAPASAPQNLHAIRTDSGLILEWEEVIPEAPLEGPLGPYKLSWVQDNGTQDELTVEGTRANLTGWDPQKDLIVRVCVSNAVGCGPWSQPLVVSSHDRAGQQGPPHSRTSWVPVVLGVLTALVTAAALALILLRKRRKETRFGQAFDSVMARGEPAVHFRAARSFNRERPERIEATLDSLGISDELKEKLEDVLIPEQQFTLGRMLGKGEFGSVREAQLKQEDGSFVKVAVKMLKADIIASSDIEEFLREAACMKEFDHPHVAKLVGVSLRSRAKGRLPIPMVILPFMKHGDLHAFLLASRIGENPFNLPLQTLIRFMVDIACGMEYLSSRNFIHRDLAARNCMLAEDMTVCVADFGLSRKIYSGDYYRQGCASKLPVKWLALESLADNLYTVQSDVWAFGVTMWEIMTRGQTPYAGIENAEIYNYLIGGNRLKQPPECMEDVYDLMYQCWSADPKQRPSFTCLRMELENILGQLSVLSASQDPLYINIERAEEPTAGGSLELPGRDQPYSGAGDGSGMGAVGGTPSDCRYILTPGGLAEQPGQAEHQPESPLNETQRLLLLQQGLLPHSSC

[5] = target: T2, TGF-beta receptor type-1 (Homo sapiens) (UniProt P36897); assay: Inhibition of TGFBR1 in human NCI-H929 cells at 10 uM by mass spectroscopic analysis relative to control; type: cell-based
T2 sequence (whole entry): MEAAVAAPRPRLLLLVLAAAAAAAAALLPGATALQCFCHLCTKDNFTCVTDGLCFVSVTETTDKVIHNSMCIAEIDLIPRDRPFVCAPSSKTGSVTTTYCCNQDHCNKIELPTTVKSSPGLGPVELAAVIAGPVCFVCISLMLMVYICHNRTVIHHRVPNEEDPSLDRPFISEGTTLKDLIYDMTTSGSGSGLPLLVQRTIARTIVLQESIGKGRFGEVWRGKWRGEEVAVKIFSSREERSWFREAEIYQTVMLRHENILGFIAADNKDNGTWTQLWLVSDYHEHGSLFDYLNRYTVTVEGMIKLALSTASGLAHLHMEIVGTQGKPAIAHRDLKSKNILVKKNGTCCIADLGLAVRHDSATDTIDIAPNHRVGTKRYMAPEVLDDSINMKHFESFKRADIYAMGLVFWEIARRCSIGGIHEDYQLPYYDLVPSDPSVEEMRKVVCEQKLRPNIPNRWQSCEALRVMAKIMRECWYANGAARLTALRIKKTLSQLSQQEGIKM

[6] = target: Tyrosine-protein kinase ABL2 (Homo sapiens) (UniProt P42684); assay: Inhibition of ARG in human NCI-H929 cells at 10 uM by mass spectroscopic analysis relative to control; type: cell-based
Sequence of Tyrosine-protein kinase ABL2 (Homo sapiens) (P42684 whole entry): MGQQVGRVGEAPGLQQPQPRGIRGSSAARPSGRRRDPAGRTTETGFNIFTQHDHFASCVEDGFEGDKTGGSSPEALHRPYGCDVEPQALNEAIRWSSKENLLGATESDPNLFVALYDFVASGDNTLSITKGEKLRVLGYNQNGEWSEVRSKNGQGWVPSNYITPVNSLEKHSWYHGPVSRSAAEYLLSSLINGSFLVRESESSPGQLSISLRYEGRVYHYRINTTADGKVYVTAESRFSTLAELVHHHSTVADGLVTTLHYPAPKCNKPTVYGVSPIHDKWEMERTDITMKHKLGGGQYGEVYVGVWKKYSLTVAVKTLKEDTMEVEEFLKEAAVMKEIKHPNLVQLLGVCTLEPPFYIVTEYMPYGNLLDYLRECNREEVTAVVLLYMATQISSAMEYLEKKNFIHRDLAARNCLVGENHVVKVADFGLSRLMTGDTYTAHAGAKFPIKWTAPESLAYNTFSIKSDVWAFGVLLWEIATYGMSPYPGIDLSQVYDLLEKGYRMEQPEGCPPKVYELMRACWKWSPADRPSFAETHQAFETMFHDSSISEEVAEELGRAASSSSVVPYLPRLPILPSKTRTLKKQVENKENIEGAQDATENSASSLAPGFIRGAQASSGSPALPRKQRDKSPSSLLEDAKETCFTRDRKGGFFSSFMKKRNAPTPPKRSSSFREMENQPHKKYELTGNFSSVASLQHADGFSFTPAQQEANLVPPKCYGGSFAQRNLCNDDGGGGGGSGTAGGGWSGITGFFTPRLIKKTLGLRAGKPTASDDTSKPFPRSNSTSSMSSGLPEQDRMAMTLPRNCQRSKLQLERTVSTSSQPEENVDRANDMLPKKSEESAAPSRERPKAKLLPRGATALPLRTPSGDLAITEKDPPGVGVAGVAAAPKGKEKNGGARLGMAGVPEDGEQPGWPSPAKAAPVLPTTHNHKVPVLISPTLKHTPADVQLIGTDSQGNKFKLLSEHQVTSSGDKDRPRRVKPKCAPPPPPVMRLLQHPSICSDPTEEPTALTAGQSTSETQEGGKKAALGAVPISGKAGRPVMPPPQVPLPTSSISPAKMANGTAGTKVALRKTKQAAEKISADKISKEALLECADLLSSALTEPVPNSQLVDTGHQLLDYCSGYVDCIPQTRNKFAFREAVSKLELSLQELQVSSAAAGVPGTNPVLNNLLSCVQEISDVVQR

[7] = target: Serine/threonine-protein kinase 25 (Homo sapiens) (UniProt O00506); assay: Inhibition of YSK1 in human NCI-H929 cells at 10 uM by mass spectroscopic analysis relative to control; type: cell-based
Sequence of Serine/threonine-protein kinase 25 (Homo sapiens) (O00506 whole entry, looked up): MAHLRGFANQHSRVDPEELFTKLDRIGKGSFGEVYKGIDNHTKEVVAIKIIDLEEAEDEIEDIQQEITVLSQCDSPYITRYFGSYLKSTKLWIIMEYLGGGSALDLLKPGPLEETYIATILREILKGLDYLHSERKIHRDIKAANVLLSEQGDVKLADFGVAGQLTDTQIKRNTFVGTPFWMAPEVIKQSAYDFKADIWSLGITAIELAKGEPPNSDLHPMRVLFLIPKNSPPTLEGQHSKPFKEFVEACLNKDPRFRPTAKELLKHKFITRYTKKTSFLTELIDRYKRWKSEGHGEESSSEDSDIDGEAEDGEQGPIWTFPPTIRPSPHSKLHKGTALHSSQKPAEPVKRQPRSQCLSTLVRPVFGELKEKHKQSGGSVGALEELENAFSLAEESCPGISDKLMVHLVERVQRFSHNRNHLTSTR

[8] = target: Serine/threonine-protein kinase MARK1 (Homo sapiens) (UniProt Q9P0L2); assay: Inhibition of MARK1 in human NCI-H929 cells at 10 uM by mass spectroscopic analysis relative to control; type: cell-based
Sequence of Serine/threonine-protein kinase MARK1 (Homo sapiens) (Q9P0L2 whole entry, looked up): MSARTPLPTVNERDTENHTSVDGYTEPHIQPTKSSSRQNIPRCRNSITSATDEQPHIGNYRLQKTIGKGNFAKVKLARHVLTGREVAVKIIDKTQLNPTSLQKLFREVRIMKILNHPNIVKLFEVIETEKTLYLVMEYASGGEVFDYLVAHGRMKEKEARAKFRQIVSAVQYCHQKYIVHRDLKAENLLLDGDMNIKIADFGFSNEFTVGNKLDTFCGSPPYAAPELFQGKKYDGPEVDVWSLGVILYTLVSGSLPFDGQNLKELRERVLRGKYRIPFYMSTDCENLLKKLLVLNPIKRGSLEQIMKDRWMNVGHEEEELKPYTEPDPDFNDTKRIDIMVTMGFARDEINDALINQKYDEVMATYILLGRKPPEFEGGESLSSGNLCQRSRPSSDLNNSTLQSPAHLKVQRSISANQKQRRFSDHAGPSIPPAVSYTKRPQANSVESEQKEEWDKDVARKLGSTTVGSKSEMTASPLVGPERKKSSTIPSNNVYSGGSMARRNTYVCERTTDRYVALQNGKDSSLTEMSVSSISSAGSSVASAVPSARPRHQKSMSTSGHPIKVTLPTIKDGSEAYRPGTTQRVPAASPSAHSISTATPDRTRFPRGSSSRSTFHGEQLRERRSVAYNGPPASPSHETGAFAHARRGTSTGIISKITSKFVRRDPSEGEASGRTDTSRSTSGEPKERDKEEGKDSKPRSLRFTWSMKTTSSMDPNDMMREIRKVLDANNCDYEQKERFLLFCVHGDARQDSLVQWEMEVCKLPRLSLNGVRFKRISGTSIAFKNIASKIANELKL

[9] = target: RAC-beta serine/threonine-protein kinase (Homo sapiens) (UniProt P31751); assay: Inhibition of AKT2 in human NCI-H929 cells at 10 uM by mass spectroscopic analysis relative to control; type: cell-based
Sequence of RAC-beta serine/threonine-protein kinase (Homo sapiens) (P31751 whole entry): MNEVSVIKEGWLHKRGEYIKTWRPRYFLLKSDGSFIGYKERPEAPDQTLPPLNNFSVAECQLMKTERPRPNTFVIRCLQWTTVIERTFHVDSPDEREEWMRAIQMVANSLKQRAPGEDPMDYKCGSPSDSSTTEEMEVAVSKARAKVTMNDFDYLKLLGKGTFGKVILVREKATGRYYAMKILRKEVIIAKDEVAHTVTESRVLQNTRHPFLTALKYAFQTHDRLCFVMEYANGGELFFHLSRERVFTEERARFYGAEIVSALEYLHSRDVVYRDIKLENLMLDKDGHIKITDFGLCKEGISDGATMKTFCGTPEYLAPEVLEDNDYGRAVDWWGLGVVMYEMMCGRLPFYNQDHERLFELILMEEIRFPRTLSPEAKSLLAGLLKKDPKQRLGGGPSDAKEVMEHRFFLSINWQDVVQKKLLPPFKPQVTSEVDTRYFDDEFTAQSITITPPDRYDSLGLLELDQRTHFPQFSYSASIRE

[10] = target: RAC-gamma serine/threonine-protein kinase (Homo sapiens) (UniProt Q9Y243); assay: Inhibition of AKT3 in human NCI-H929 cells at 10 uM by mass spectroscopic analysis relative to control; type: cell-based
Sequence of RAC-gamma serine/threonine-protein kinase (Homo sapiens) (Q9Y243 whole entry): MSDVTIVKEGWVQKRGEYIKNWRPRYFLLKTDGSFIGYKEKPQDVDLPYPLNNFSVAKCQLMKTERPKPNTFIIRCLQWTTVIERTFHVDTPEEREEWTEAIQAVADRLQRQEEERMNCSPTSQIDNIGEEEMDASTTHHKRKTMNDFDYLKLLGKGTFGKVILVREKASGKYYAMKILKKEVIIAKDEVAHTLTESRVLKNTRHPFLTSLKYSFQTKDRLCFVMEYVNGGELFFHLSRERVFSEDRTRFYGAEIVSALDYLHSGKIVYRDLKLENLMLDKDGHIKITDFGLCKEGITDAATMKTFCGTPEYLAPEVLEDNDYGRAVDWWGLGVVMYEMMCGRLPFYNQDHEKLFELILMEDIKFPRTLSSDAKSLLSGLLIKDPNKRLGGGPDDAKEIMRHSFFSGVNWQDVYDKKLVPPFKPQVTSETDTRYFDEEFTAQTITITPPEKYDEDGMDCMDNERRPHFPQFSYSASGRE

[11] = target: T3, Serine/threonine-protein kinase 3 (Homo sapiens) (UniProt Q13188); assay: Inhibition of STK3 (unknown origin) using fluorescein-labelled Ser/Thr-07 peptide as substrate incubated for 1 hr in presence of ATP at Km concentration by Z-LYTE assay
T3 sequence (whole entry): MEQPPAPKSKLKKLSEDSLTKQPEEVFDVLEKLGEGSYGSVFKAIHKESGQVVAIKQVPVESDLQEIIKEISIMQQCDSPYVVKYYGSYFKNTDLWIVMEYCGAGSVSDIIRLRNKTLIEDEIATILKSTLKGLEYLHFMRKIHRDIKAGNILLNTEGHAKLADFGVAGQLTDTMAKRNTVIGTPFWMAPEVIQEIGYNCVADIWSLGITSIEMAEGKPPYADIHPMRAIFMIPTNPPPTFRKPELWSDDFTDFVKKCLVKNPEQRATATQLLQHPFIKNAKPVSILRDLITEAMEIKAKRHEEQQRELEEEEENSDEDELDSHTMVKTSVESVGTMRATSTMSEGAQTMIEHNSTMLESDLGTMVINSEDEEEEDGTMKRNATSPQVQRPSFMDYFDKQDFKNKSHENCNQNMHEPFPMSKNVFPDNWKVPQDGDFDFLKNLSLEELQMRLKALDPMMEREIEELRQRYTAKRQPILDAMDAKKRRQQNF

[12] = tested on: MM1.S; assay: Downregulation of phosphorylated-MOB1 protein level in human MM1.S cells at 1 to 10 uM measured after 6 hrs by Western blot analysis; type: functional, cell-based; settings: dose 1-10 µM

Sequence of Dual specificity mitogen-activated protein kinase kinase 2 (Homo sapiens) (P36507 whole entry): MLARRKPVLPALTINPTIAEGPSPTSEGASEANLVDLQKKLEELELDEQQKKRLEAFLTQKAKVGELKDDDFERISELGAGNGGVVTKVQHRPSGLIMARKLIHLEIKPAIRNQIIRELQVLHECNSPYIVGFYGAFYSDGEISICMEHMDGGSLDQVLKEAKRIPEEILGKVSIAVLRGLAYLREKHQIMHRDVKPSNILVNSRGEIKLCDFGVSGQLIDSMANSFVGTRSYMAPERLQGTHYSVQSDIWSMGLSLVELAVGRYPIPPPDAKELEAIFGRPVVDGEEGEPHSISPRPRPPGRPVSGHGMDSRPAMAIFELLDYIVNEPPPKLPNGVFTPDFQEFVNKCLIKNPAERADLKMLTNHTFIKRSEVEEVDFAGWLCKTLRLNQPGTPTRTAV

SMILES | inhibition [1] [%] | inhibition [2] [%] | inhibition [3] [%] | inhibition [4] [%] | inhibition [5] [%] | inhibition [6] [%] | inhibition [7] [%] | inhibition [8] [%] | inhibition [9] [%] | inhibition [10] [%] | IC50 [11] [nM] | Activity [12]
Nc1ncc(-c2ccc(NS(=O)(=O)C3CC3)cc2F)cc1-c1ccc2c(c1)CCNC2=O | 0 | 0 | 0 | 0 | 0 | 0 | < 75 | 0 | – | – | – | –
COc1cc(NS(=O)(=O)C2CC2)ccc1-c1cnc(N)c(-c2ccc3c(c2)CCNC3=O)c1 | 0 | 0 | 0 | 0 | 75 | 0 | 0 | 0 | – | – | – | –
Nc1ncc(-c2ccc(NS(=O)(=O)C3CC3)cc2OC2CCCCC2)cc1-c1ccc2c(c1)CCNC2=O | 0 | 0 | 0 | 0 | > 90 | 0 | – | 0 | – | – | – | –

Second part, led by results:

inhibition [1] [%] | inhibition [2] [%] | inhibition [3] [%] | inhibition [4] [%] | inhibition [5] [%] | inhibition [6] [%] | inhibition [7] [%] | inhibition [8] [%] | inhibition [9] [%] | inhibition [10] [%] | IC50 [11] [nM] | SMILES | Activity [12]
– | – | – | – | – | – | 0 | – | 0 | 0 | < 40 | Nc1ncc(-c2cccc([N+](=O)[O-])c2F)cc1-c1ccc2c(c1)CCNC2=O | Active
– | 0 | – | – | – | 50 | 0 | 0 | 0 | 0 | 40 | Nc1ncc(-c2cccc3ncsc23)cc1-c1ccc2c(c1)CCNC2=O | Active
– | 0 | – | – | – | 0 | < 90 | 0 | 0 | 0 | < 40 | CN(C1CC1)S(=O)(=O)c1ccc(-c2cnc(N)c(-c3ccc4c(c3)CCNC4=O)c2)c(F)c1 | Active
